Source: EP0054589B1, “Organic phosphoric acid ester derivatives, a process for preparing the same and insecticidal, miticidal or nematocidal compositions containing the same” (priority 1980, dated 1982)

Columns and labels:
diamond back moth = assay: Insecticidal effect on diamond-back moth (cabbage leaf dip); assay type: in vivo, Plutella xylostella; details: Table 7; 100 ppm; after 72 hours, 25°C; emulsifiable concentrate as Formulation Example 1
In short: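 Cabbage leaves dipped 10 s in water-diluted emulsifiable concentrate at set concentration, air-dried; thirty 3rd-instar diamond-back moth larvae per cup held at 25°C. Percent mortality scored after 72 h, three replicates per treatment.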

tobacco cutworm [1] = assay: Insecticidal effect on tobacco cutworm (cabbage leaf dip); assay type: in vivo, Prodenia litura; details: Table 3; 500 ppm; after 48 hours, 25°C; emulsifiable concentrate as Formulation Example 1
In short: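 Cabbage leaves dipped in water-diluted emulsifiable concentrate (two formulations, tests A and B) and air-dried were fed to 3rd-instar tobacco cutworm larvae at 25°C. Percent mortality scored after 48 hours; 3 replicates of 30 insects per compound.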

apple leaf miner = assay: Insecticidal effect on apple leaf miner (sprayed apple seedling); assay type: in vivo, Lithocolletis ringoniella; details: Phyllonorycter ringoniella, 336 h; Table 10; 500 ppm; fourteen days after spraying; wettable powder as Formulation Example 5; read-out: Percent Morality (%)
In short: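 Wettable-powder suspensions were sprayed onto potted apple seedlings infested with newly hatched leaf miner larvae, then kept in a greenhouse.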

tobacco cutworm [2] = assay: Long-lasting insecticidal effect on tobacco cutworm (sprayed cabbage plantlet); assay type: in vivo, Prodenia litura; details: Table 5, concentration 500 (unit not given), mortality after 48 hours
In short: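 Cabbage plantlets sprayed with water-diluted emulsifiable concentrate and held in a greenhouse; leaves cut on days 3, 5, 7, 10 and 15 and fed to 3rd-instar larvae at 25°C. Percent mortality scored after 48 h; 3 replicates, 30 insects each.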

Beet = assay: Phytotoxicity on various crops; assay type: in vivo; design: key: Symbol — indicates that no toxicity was observed; details: 500 ppm sprayed; checked visually after 10 days
In short: (§1)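 Test compounds, formulated as emulsifiable concentrates and brought to 500 ppm active in water, were sprayed onto the crops in sufficient amount. After ten days in the greenhouse, crop injury was inspected visually.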

Kidney Bean = assay: Phytotoxicity on various crops; assay type: in vivo; design: key: Symbol — indicates that no toxicity was observed; details: 500 ppm sprayed; checked visually after 10 days
In short: as §1

Apple = assay: Phytotoxicity on various crops; assay type: in vivo; design: key: Symbol — indicates that no toxicity was observed; details: 500 ppm sprayed; checked visually after 10 days
In short: as §1

Cucumber = assay: Phytotoxicity on various crops; assay type: in vivo; design: key: Symbol — indicates that no toxicity was observed; details: 500 ppm sprayed; checked visually after 10 days
In short: as §1

egg plant [3] = assay: Phytotoxicity on various crops; assay type: in vivo; design: key: Symbol — indicates that no toxicity was observed; details: 500 ppm sprayed; checked visually after 10 days
In short: as §1

Cabbage = assay: Phytotoxicity on various crops; assay type: in vivo; design: key: Symbol — indicates that no toxicity was observed; details: 500 ppm sprayed; checked visually after 10 days
In short: as §1

Tea = assay: Phytotoxicity on various crops; assay type: in vivo; design: key: Symbol — indicates that no toxicity was observed; details: 500 ppm sprayed; checked visually after 10 days
In short: as §1

Green Pepper = assay: Phytotoxicity on various crops; assay type: in vivo; design: key: Symbol — indicates that no toxicity was observed; details: 500 ppm sprayed; checked visually after 10 days
In short: as §1

Cotton = assay: Phytotoxicity on various crops; assay type: in vivo; design: key: Symbol — indicates that no toxicity was observed; details: 500 ppm sprayed; checked visually after 10 days
In short: as §1

Rice = assay: Phytotoxicity on various crops; assay type: in vivo; design: key: Symbol — indicates that no toxicity was observed; details: 500 ppm sprayed; checked visually after 10 days
In short: as §1

Tomato = assay: Phytotoxicity on various crops; assay type: in vivo; design: key: Symbol — indicates that no toxicity was observed; details: 500 ppm sprayed; checked visually after 10 days
In short: as §1

rice stem borer = assay: Insecticidal effect on rice stem borer, 3rd-instar larvae (rice seedling dip); assay type: in vivo, Chilo suppressalis; details: Table 1, after 72 hours, 25°C, wettable powder as Formulation Example 5
In short: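 Wettable-powder formulations were diluted in water to set concentrations, and rice seedlings were dipped in them. Ten 3rd-instar larvae were placed per capped cup with the treated seedlings and held at 25°C.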

smaller tea tortrix = assay: Insecticidal effect on smaller tea tortrix (apple leaf dip); assay type: in vivo; details: Adoxophyes orana, foliar; Table 9; 100 ppm; after 72 hours, 25°C; wettable powder as Formulation Example 5; read-out: Percent Mortality
Experimental: Leaves of an apple tree were dipped into a dilute water suspension of a wettable powder prepared as described in Formulation Example 5. After drying in air, the leaves were charged in a 60 ml volume cup made of vinyl chloride resin, and […] 3rd-instar larvae of smaller tea tortrix were put in each cup. The cups were capped and kept at 25°C. After 72 hours, the number of the surviving insects and the dead insects were recorded to determine percent mortality. In each treatment, 3 cups and 30 insects were used in total.

carmine mites = assay: Miticidal effect on carmine mite (sprayed kidney bean seedling); assay type: in vivo, Tetranychus cinnabarius; details: 500 ppm
Experimental: An emulsifiable concentrate prepared as described in Formulation Example 1 and diluted to a predetermined concentration was sprayed using a spray-gun on a seedling of a kidney bean placed in a pot of 12 cm in diameter to which plant carmine mites were parasitic. After drying in air, seedlings were kept in a green house, and the number of living insects was recorded on the 7th, 14th, 21st and 28th day from the day of application to determine the control effects. Three pots were used for each treatment. The control effect was assessed by the following formula: [formula] • wherein Σ indicates sum and Cb, Tb, Cai and Tai have the following meanings. • Cb: Number of living mites in non-treated sample before application. • Tb: Number of living mites in treated sample before application. • Cai: Number of living mites in non-treated sample 7th, 14th, 21 st or 28th day from the application. • Tai: Number of living mites in treated sample 7th, 14th, 21st or 28th day from the application.

[4] = test system: carmine mites resistant to Kelthane; assay: Miticidal effect on carmine mite resistant to Kelthane (sprayed egg plant seedling); assay type: in vivo, Tetranychus cinnabarius; details: 500 ppm; for Number of Living Mites after Application 7th Day / Number of Living Mites after Application 14th Day / Number of Living Mites after Application 21st Day / Number of Living Mites after Application 28th Day: egg plant seedling; for Control Effect (%): from mite counts on 7th, 14th, 21st and 28th day
Experimental: (§2) (A) An emulsifiable concentrate prepared as described in Formulation Example 1 and diluted to a predetermined concentration was sprayed using a spray-gun on a seedling of an egg plant placed in a pot of 12 cm in diametre to which plant carmine mites resistant to Kelthane were parasitic. After drying in air, seedlings were kept in a green house, and the number of living insects was recorded on the 7th, 14th, 21 st and 28th day from the day of application to determine the control effects. Three pots were used for each treatment. The control effect was assessed by the formula described in TEST EXAMPLE 7 above. Further, phytotoxicity was observed visually on the 7th day after the application.
as §2, with “(B) An” for “(A) An”, “Example 3” for “Example 1”, “in diameter” for “in diametre”, “in Test” for “in TEST”

egg plant [5] = assay: Phytotoxicity observed visually in the mite test on egg plant; assay type: in vivo; design: key: —: None; +: Slightly toxic; ++: Toxic; +++: Strongly toxic; details: 500 ppm, observed visually on the 7th day after the application
Experimental: as §2
as §2, with “(B) An” for “(A) An”, “Example 3” for “Example 1”, “in diameter” for “in diametre”, “in Test” for “in TEST”

[6] = Table 13, Formulation Example 1
[7] = Table 14, Formulation Example 3

Structure (SMILES) | Percent Mortality (%) (diamond back moth) | Percent Mortality (%) (tobacco cutworm [1]) | Phytotoxicity: Beet (Beet) | Phytotoxicity: Kidney Bean (Kidney Bean) | Phytotoxicity: Apple (Apple) | Phytotoxicity: Cucumber (Cucumber) | Phytotoxicity: Egg Plant (egg plant [3]) | Phytotoxicity: Cabbage (Cabbage) | Phytotoxicity: Tea (Tea) | Phytotoxicity: Green Pepper (Green Pepper) | Phytotoxicity: Cotton (Cotton) | Phytotoxicity: Rice (Rice) | Phytotoxicity: Tomato (Tomato) | Percent Mortality (%) (rice stem borer; 500 ppm) | Number of Living Mites after Application 7th Day [4, 6] | Number of Living Mites after Application 14th Day [4, 6] | Number of Living Mites after Application 21st Day [4, 6] | Number of Living Mites after Application 28th Day [4, 6] | Control Effect (%) ([4]; Table 13) | Phytotoxicit (egg plant [5]; Table 13) | other results
CCC(C)SP(=O)(OC)Oc1ccc2c(c1)OC(C)=CC2(C)C (stereo not drawn) [Compound No. 16, O-methyl-S-sec-butyl-O-(2,4,4-trimethyl-1,4-benzopyran-7-yi) phosphorothioate] | 100% | 100% | — | — | — | — | — | — | — | — | — | — | — | 100% |  |  |  |  |  |  | mortality at 500 ppm (apple leaf miner): 100%; Percent Mortality After Application 3rd Day (tobacco cutworm [2]; leaves cut on 3rd day): 100%; Percent Mortality After Application 5th Day (tobacco cutworm [2]; leaves cut on 5th day): 100%; Percent Mortality After Application 7th Day (tobacco cutworm [2]; leaves cut on 7th day): 100%; Percent Mortality After Application 10th Day (tobacco cutworm [2]; leaves cut on 10th day): 100%; Percent Mortality After Application 15th Day (tobacco cutworm [2]; leaves cut on 15th day): 100%; Percent Mortality (%) (rice stem borer; 100 ppm): 100%; mortality at 100 ppm (smaller tea tortrix): 100%
OC(c1ccc(Cl)cc1)(c1ccc(Cl)cc1)C(Cl)(Cl)Cl [Kelthane, 2,2,2-trichloro-1,1-bis(4-chlorophenyl)ethanol, reference compound] |  |  |  |  |  |  |  |  |  |  |  |  |  |  | 32 | 0 | 118 | 269 | 61.5% | +++(*) | Control Effect (%) (carmine mites; Table 12, from mite counts on 7th, 14th, 21st and 28th day): 99.0%; Number of Living Mites after Application 7th Day (carmine mites; Table 12, kidney bean seedling): 0; Number of Living Mites after Application 14th Day (carmine mites; Table 12, kidney bean seedling): 0; Number of Living Mites after Application 21st Day (carmine mites; Table 12, kidney bean seedling): 5; Number of Living Mites after Application 28th Day (carmine mites; Table 12, kidney bean seedling): 15; Number of Living Mites after Application 7th Day [4, 7]: 31; Number of Living Mites after Application 14th Day [4, 7]: 58; Number of Living Mites after Application 21st Day [4, 7]: 156; Number of Living Mites after Application 28th Day [4, 7]: 301; Control Effect (%) ([4]; Table 14): 32.3%; Phytotoxicit (egg plant [5]; Table 14): +++(*)
CCOP(=O)(Oc1ccc2c(c1)OC(C)=CC2(C)C)SC(C)CC (stereo not drawn) [compound 6] | 100% | 100% | — | — | — | — | — | — | — | — | — | — | — | 100% | 0 | 0 | 10 | 54 | 96.4% | — | Control Effect (%) (carmine mites): 94.9%; Number of Living Mites after Application 7th Day (carmine mites): 0; Number of Living Mites after Application 14th Day (carmine mites): 0; Number of Living Mites after Application 21st Day (carmine mites): 4; Number of Living Mites after Application 28th Day (carmine mites): 45
CCOP(=S)(Oc1ccc2c(c1)OC(C)=CC2(C)C)SC(C)CC (stereo not drawn) [compound 11] | 100% | 100% | — | — | — | — | — | — | — | — | — | — | — | 100% | 0 | 3 | 10 | 48 | 97.0% | — | Number of Living Mites after Application 7th Day [4, 7]: 0; Number of Living Mites after Application 14th Day [4, 7]: 2; Number of Living Mites after Application 21st Day [4, 7]: 17; Number of Living Mites after Application 28th Day [4, 7]: 56; Control Effect (%) ([4]; Table 14): 93.1%; Phytotoxicit (egg plant [5]; Table 14): —
